Experimental data reported in patent US10385007B2, “Monamine and monoamine derivatives as inhibitors of leukotriene A4 hydrolase” (Celtaxsys, Inc., priority 2016, dated 2019).
Where two headings read alike, the source gives them in different places.

Assays:
[1] = system: LTB4 production in human whole blood; test: Whole blood assay (LTB4 release upon calcium ionophore, ELISA), human; format: cell-based; conditions: production of LTB4 in whole blood, calcium ionophore stimulation
Procedure: Compounds of the invention were tested for their ability as inhibitors of LTA4 hydrolase in a whole blood assay using human, mouse, rat or dog whole blood in a manner similar to that described in Penning, T. D. et al., J. Med. Chem. (2000), 43(4): 721-735. In this assay, compounds were tested for their ability to inhibit LTB4 release upon stimulation with calcium ionophore. The LTB4 levels in supernatants were measured by ELISA.

[2] = molecular target: T1, LTA4 hydrolase peptidase activity (Homo sapiens, UniProt P09960); test: Peptidase assay (hydrolysis of L-alanine-p-nitroanilide); format: biochemical; conditions: 29 nM enzyme, 1 mM L-alanine-p-nitroanilide, 1 hour
T1 sequence (P09960 1-611): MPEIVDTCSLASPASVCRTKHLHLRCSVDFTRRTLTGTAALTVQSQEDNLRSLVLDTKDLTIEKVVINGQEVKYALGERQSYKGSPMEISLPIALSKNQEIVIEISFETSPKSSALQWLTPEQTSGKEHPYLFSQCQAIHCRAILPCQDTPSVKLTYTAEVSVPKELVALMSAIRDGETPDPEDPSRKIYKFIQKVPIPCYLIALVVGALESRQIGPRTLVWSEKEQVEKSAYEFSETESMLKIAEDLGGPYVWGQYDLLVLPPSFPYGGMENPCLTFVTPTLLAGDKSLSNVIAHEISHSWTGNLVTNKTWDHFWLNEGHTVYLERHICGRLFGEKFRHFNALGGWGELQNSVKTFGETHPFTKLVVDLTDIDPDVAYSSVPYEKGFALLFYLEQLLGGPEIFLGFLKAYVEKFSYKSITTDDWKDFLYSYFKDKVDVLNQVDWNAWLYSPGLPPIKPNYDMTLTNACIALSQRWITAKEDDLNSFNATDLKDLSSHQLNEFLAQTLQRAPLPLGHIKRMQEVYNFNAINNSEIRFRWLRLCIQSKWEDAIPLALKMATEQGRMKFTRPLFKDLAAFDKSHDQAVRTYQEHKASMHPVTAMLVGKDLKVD
Procedure: Inhibition of peptidase activity was measured for the compounds of the invention by using methods similar to those described in Kull, F. et al., The Journal of Biological Chemistry 1999, 274 (49): 34683-34690.
In brief, the enzyme (29 nM) was incubated with L-alanine-p-nitroanilide (1 mM) in 50 mM HEPES (pH 7.5), 100 mM KCL, 1% DMSO in the absence or presence of a compound of the invention for 1 hour at ambient temperature. Reaction was terminated by addition of acetic acid (1%). Formation of colored nitro-aniline was measured by the increase in absorbance at 405 nm in a Victor 2 plate reader (Wallac). Spontaneous hydrolysis of the substrate was corrected for by subtracting the absorbance of control incubations without enzyme.

[3] = molecular target: T2, recombinant human LTA4 hydrolase (Homo sapiens, UniProt P09960); test: LTA4 hydrolase homogeneous time resolved fluorescence (HTRF) assay; format: biochemical
T2 sequence (P09960 1-611): T1 sequence (P09960 1-611)
Procedure: Compounds of the invention were tested in the LTA4 hydrolase homogeneous time resolved fluorescence (HTRF) assay to determine their ability to inhibit the hydrolysis of LTA4 to LTB4. The assay analyzes the amount of LTB4 produced.
LTA4 HTRF assay is a two-step assay involving enzymatic conversion of LTA4 to LTB4, and subsequent quantification of LTB4, product with HTRF assay.
The enzymatic conversion of LTA4 to LTB4 was performed in 384-well plates at ambient temperature in a reaction mixture containing 50 mM HEPES (pH 7.5), 0.5% BSA (fatty acid free), 18 nM recombinant human LTA4 hydrolase, 150 nM LTA4, 1% DMSO in the absence or presence of a compound of the invention. Reaction was stopped after 10 minutes incubation by diluting the incubation mixture 10-fold in 50 mM phosphate, 0.1% casein buffer (pH 7.0).
LTB4 formed was quantified with the HTRF assay in which free LTB4 competes with LTB4-XL665 conjugate (acceptor) for anti-LTB4 monoclonal antibody labeled with Europium cryptate (donor), thereby inhibiting the fluorescence energy transfer.
The LTB4 HTRF 384-well assay was carried out by incubating LTB4 samples or standards with LTB4-XL665 conjugate (7.5 ng/well) and anti-LTB4 monoclonal antibody-Europium cryptate conjugate (0.5 ng/well) in 50 mM phosphate, 0.4 M KF and 0.1% casein, buffer (pH 7.0) for two hours at ambient temperature. Plates were read in a RubyStar plate reader (BmG Labtechnologies Inc., NC) simultaneously at 620 nm and 665 nm to obtain signal ratios of 665 nm/620 nm. Results of energy transfer were expressed as delta F (%) which equaled [(signal ratio of sample-signal ratio of negative control)/(signal ratio of negative control)]×100%. Negative controls were control samples without LTB4 or LTB4-XL665.
Sample LTB4 concentrations were calculated from the LTB4 standard curve using the 4-parameter fit equation. For determination IC50 values for a particular compound of the invention, eight serially diluted compound concentrations (at 1:3.16 dilution) were used in this assay. Controls without a compound of the invention or with a reference compound were run parallel in the same assay plate.

[4] = inhibition of LTA4 to LTB4 hydrolysis, 18 nM enzyme, 150 nM LTA4, 10 minutes, read-out: Hydrolase IC50

| IC50 [1] [µM] | IC50 [2] [µM] | IC50 [3, 4] [µM] | Compound | IC50 [3] [µM] |
| --- | --- | --- | --- | --- |
| 0.15 | 0.023 | 0.015 | CN(CCOc1ccc(Cc2ccccc2)cc1)Cc1ccccc1Oc1cccc(C(=O)O)c1 [Example 12] |  |
| 0.91 |  | 0.26 | NC(CO)Cc1ccc(Oc2ccc(Cc3ccccc3)cc2)cc1 (stereo not shown) [Example 10, 3-[4-(4-benzylphenoxy)phenyl]-2-aminopropanol] |  |
| 0.35 |  | 0.13 | CCOC(=O)C(N)Cc1ccc(Oc2ccc(Cc3ccccc3)cc2)cc1 (stereo not shown) [Example 9, ethyl 3-[4-(4-benzylphenoxy)phenyl]-2-aminopropanoate] |  |
|  | 0.18 | 0.3 | NCc1cccnc1NCCOc1ccc(Cc2ccccc2)cc1 [Example 11, 2-(4-benzylphenoxy)ethylamino-3-aminomethylpyridine] |  |

Continued, compound first:

| Compound | IC50 [1] [µM] | IC50 [2] [µM] | IC50 [3, 4] [µM] | IC50 [3] [µM] |
| --- | --- | --- | --- | --- |
| COC(=O)C(N)Cc1ccc(Oc2ccc(Cc3ccccc3)cc2)cc1 (stereo not shown) [Example 8, methyl 3-[4-(4-benzylphenoxy)phenyl]-2-aminopropanoate] | 0.79 |  | 0.12 |  |
| NCCc1ccc(Oc2ccc(Cc3ccccc3)cc2)cc1 [Example 3, 4-benzylphenoxy-4-phenylethylamine] | 0.089 |  |  | 0.044 |
| NC(Cc1ccc(Oc2ccc(Cc3ccccc3)cc2)cc1)C(=O)O (stereo not shown) [Example 7, 3-[4-(4-benzylphenoxy)phenyl]-2-aminopropanoic acid] | 0.88 |  | 0.084 |  |
| NCc1ccc(OCc2ccc(-c3ccccc3)cc2)cc1 [Example 1, 1-(4-phenylphenyl-1-methoxy)-4-aminomethylbenzene] |  |  | 0.3 |  |
| NCc1ccc(Oc2ccc(Cc3ccccc3)cc2)cc1 [Example 5, 4-(4-benzylphenoxy)benzylamine] | 0.15 |  | 0.27 |  |
| NCCc1ccc(OCc2ccc(-c3ccccc3)cc2)cc1 [Example 2, (4-phenylphenyl-1-methoxy)-4-phenylethylamine] | 0.047 |  |  | 0.041 |
| CN(CCOc1ccc(Cc2ccccc2)cc1)Cc1ccccc1Oc1ccc(C(=O)O)cc1 [Example 4, [N-2-(4-benzylphenoxy)ethyl]-N-methyl-(2-aminomethylphenoxy)-4-benzoic acid] | 0.37 | 0.032 | 0.1 |  |
| CN(CCOc1ccc(Cc2ccccc2)cc1)Cc1ccc(C(=O)O)cc1 [Example 6, [N-2-(4-benzylphenoxy)ethyl]-N-methyl-aminomethyl-4-benzoic acid] | 0.31 |  | 0.021 |  |
